Data as given in patent EP2475361B1, “N-SUBSTITUTED BENZENEPROPANAMIDES FOR USE IN THE TREATMENT OF PAIN AND INFLAMMATION” (Novaremed Ltd., priority 2009, dated 2011).

Assays:
Balb/c mice [1] = experiment: Hot-Plate Test (antinociceptive effect, sub-chronic administration); type: in vivo; details: hot plate 52°C; 0.1 or 5 mg/Kg po daily for 16 days; tested on days 1, 8 and 15; compared with Diclofenac 10 mg/kg
From the text: The objective of the study was to assess antinociceptive activity of tested items in the hot plate tests in mice, when administered sub-chronically. Measuring paw licking or jumping response time elapses following placement on heated surface (hot plate) was used to determine potential antinociceptive effect in mice.
A total of 42 Balb/c mice (12weeks old) were utilized. The mice were approximately 25g males at study initiation. The minimum and maximum weights of the group were within a range of ±10 % of group mean weight.
Compounds 2 and 3 were tested and compared with Diclofenac® (Perigo). DMSO solutions were used. Six groups of mice (each having n=7 or n=8 mice) were tested, the last group receiving Diclofenac®.
All groups received the drugs daily po for 16 days. Hot plate experiments were performed on days; 1, 8 and 15.
The hot plate is maintained thermostatically at a temperature of 52°C. One hour before the administration of the drugs, mice are tested in the hot plate. At time 0 the mice are administered with the test compound and the response to the hot plate is measured again at different times: 60,120,180, 240, 300 and 360 min.
Results are expressed as: Delta from maximum response [baseline vs. maximum response]; Absolute measures over time; and Accumulated time.

Balb/c mice [2] = experiment: Formalin test; type: in vivo; details: formalin 1% intraplantar 3 h or 4 h after treatment; 0.2, 1, 2.5 mg/kg i.p.; paw licking 0-5 min and 20-30 min; Figures 12a-12e
Experimental: Formalin test. The method used was similar to that described by Hunscaar and Hole (1987) "The formalin test in mice: dissociation between inflammatory and non-inflammatory pain," Pain 30, pp.[…].
Five animals are used in each group and two to three hours after oral administration of the conjugates, 40 µl or 20 µl (rats or mice, respectively) of a 1% formalin (in 0.9% saline) solution is injected subcutaneously into the dorsal surface hind paw. The formalin induced typical flinching behaviour of the injected paw was counted. The animals were returned to a glass chamber and the total time spent by the animal licking or biting the injected paw was measured. Formalin induced pain behaviour is biphasic. The duration of paw licking was determined during the following two time periods: 0-5 min (first-neurogenic phase) and 20-30 min (second-inflammatory phase) after formalin injection. Part a. Male mice (Balb/c mice, 27 weeks old, not naïve), were divided in 4 groups (5 mice per group) and treated (0 min, i.p.) with the following formulations, respectively: […]
Part b. Male mice (Balb/c mice, 27 weeks old, not naive), were divided in 4 groups (5 mice in groups) and treated (0 min, i.p.) with the following formulations, respectively: […]

| SMILES | pain relief (antinociceptive effect) (Balb/c mice [1]) | anti-inflammatory properties (Balb/c mice [2]) |
| --- | --- | --- |
| CC(O)COCC(Cc1ccc(O)cc1)NC(=O)CCc1ccccc1 (stereo not drawn) [Compound 2] | effective as pain relievers | anti-inflammatory properties |
| O=C(CCc1ccccc1)NC(COCCO)Cc1ccc(O)cc1 (stereo not drawn) [Compound 3] | effective as pain relievers |  |
